By IC50 is commonly meant the concentration needed to halve the response being measured. The low end stands for higher potency, the high end for lower potency.

This test deals with T1, FAP (HT1080-hFAP cells) (Homo sapiens, UniProt Q12884).
T1 sequence (Q12884 1-760): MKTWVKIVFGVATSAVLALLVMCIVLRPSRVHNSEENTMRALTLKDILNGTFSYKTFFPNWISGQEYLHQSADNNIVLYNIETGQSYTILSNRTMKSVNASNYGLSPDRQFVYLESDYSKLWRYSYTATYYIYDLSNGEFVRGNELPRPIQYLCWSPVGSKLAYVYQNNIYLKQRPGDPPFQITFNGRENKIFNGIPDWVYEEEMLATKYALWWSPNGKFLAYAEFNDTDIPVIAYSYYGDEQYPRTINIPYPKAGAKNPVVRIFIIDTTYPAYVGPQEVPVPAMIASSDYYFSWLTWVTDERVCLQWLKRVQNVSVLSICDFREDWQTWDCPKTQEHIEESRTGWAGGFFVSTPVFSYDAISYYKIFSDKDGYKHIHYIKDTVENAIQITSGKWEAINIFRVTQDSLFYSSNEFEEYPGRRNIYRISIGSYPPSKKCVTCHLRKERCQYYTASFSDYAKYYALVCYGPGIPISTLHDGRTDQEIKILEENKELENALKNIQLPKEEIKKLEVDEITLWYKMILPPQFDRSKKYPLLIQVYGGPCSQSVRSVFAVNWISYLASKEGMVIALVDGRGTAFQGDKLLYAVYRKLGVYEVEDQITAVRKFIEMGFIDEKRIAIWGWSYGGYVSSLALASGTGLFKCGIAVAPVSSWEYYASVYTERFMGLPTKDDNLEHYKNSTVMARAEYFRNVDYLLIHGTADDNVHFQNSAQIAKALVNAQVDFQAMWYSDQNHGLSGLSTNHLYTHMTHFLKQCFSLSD
The experiment in a line: Affinity assay: competition against [68Ga]Ga-FAP2286 in HT1080-hFAP cells. In kind it is binding.

Molecules are shown by their SMILES.

The compound `CCCCCC(=O)N[C@H]1CSCc2cc(CSCCNC(=O)CCCCCNC(=O)CC[C@H](NC(=O)CCC(C(=O)O)N3CCN(CC(=O)O)CCN(CC(=O)O)CCN(CC(=O)O)CC3)C(=O)NCCCOc3ccc4nccc(C(=O)NCC(=O)N5CC(F)(F)C[C@H]5C#N)c4c3)cc(c2)CSC[C@@H](C(=O)O)NC(=O)[C@H](Cc2ccccc2)NC(=O)[C@H](CCC(N)=O)NC(=O)[C@H]([C@@H](C)O)NC(=O)[C@@H]2CCCN2C(=O)[C@@H]2CCCN2C1=O` (some centres unmarked) [BiFAPI] gave a half-inhibitory concentration (IC50) of 11.4 ± 1.66 nM.
On to `CCCCCC(=O)N[C@H]1CSCc2cc(CSCCNC(=O)CN3CCN(CC(=O)O)CCN(CC(=O)O)CCN(CC(=O)O)CC3)cc(c2)CSC[C@@H](C(=O)O)NC(=O)[C@H](Cc2ccccc2)NC(=O)[C@H](CCC(N)=O)NC(=O)[C@H]([C@@H](C)O)NC(=O)[C@@H]2CCCN2C(=O)[C@@H]2CCCN2C1=O` [FAP2286], for which the IC50 was 6.58 ± 1.6 nM.
